Legend:
[1] = tested on: rats; test: Bioavailability studies on rats (liver and kidney functions, blood picture, lipid profile); assay type: in vivo; details: for Lipid profile: all groups
Excerpt: The study on rats included five groups, group 1 control, 2 receiving cu, group.2 pyrazinic, group 3 complex with large dose, & group 5 receiving complex with small dose.

[2] = tested on: male infertility (sperm count, motility); test: Male infertility study, 20 patients; assay type: in vivo, human
[3] = tested on: rats; test: Toxicity of the complex (LD50, mortality within 24 hrs); assay type: in vivo
Description: Seventy two rats (250+/−2.0 g b.wt) were randomly located into 12 groups of 6 rats each
Mortality in each group were recorded within 24 hrs. The LD50 was calculated according to Behecens and Karbere (1970)

[4] = tested on: stem cells, CD4 and CD8 cells; test: In vivo stem cell, CD4 and CD8 counts before and during medication; details: before and at regular intervals of medication
Excerpt: We hypothesized that the drug may have a role in stimulating the stem cells present in the various organs to differentiate. […] In vivo we measured the stem cell count together with CD8 and CD4 cells before, and at regular intervals of medication.

[5] = Stability of the solid complex; assay type: physicochemical
[6] = tested on: muscle weakness (muscle dystrophies, post stroke weakness); test: Clinical trials for treatment of weakness of muscles; assay type: in vivo, human
Excerpt: The complex used in treatment of muscle weakness for different underlying causes (muscle dystrophies post stroke weakness). […] When the patient reaches the optimum dose, onset of improvement in muscle power is observed within hours of drug intake.

[7] = tested on: fatigue; test: Clinical trials for treatment of fatigue in humans; assay type: in vivo
[8] = Solubility of the complex in solvents; assay type: physicochemical
Excerpt: Solubility: the complex is insoluble in non polar solvents, e.g. benzene, carbon tetrachloride, etc., and insoluble in polar solvents: water, methanol, ethanol, acetone, but soluble in these solvents upon heating in inert atmosphere, to prevent oxidation.

[9] = tested on: dilated Cardiomyopathy; test: Clinical trials in cardiomyopathy; assay type: in vivo, human; details: clinically and in ECHO cardiographic measurements
Excerpt: Improvement is shown both clinically and in the ECHO cardiographic measurements.

[10] = complex at large and small dose

Molecule: O=C(O)c1cnccn1 [pyrazinic, pyrazinic acid, reference compound]
- Lipid profile [1]: didn't show significant difference
- Liver and kidney functions versus control group [1, 10]: no significant difference

Molecule: [CuCI (pyrazinic acid) 2]. 2H2O [complex]
- Sperm motility ([2]; all cases): significant improvement
- Healthy babies, azospermic patients ([2]; among the seven responding azospermic patients): two of them got healthy babies
- Healthy babies, oligospermia ([2]; oligospermia cases): four cases got also healthy babies
- Sperm count in azospermic patients ([2]; seven out of nine patients, within 6 weeks of treatment): 1.5-3 millions/hpf
- Sperm count in oligospermia ([2]; within 1 month of treatment): doubling of the count
- LD50 (intrapperitoneally) ([3]; intraperitoneal): 128 mg/kg
- LD50 (oral) ([3]; oral): 1104.17 mg/kg
- CD4/CD8 [4]: no disturbance
- CD4 and CD8 number [4]: increase
- Stem cell count [4]: significant decrease
- Stability [5]: sufficiently stable when well-dried
- Clinical improvement in DMS patients ([6]; affected by age, weight and degree of dystrophy): dose dependant
- Onset of improvement in muscle power ([6]; at optimum dose, after drug intake): within hours
- Lipid profile [1]: didn't show significant difference
- Liver and kidney functions versus control group [1, 10]: no significant difference
- Lymphocytic count (complete blood picture) ([1]; complex at large and small dose, not exceeding the normal range): increase of lymphocytic count
- Agonizing fatigue in Parkinsonism, myositis, disseminated sclerosis [7]: improves markedly
- Effect in all types of fatigue [7]: relieved the muscle pain, increased the physical activity and productivity
- Solubility in non polar solvents ([8]; e.g. benzene, carbon tetrachloride): insoluble
- Solubility in polar solvents ([8]; water, methanol, ethanol, acetone): insoluble
- Solubility in polar solvents upon heating ([8]; water, methanol, ethanol, acetone, heating in inert atmosphere): soluble
- Cases improved, dilated cardiomyopathy due to other causes [9]: 80%
- Improvement of dilated cardiomyopathy secondary to Duchenne muscle dystrophy [9]: improved all cases

Source: patent US20090105207A1, “Copper (1) Complex” (priority 2006, published 2009)
